The text below walks through data of US12157746B2, “Tetrahydro-1H-pyrazino[2,1-a]isoindolylquinoline compounds for the treatment of autoimmune disease” (F. HOFFMANN-LA ROCHE AG, priority 2018, dated 2024).

≈ marks a conversion by molar mass, not a printed value. Where only a bound is given, the exact number is not on record here.

The target in one data set is T1, hERG K+ channel (Homo sapiens, UniProt Q12809).
T1 construct: expressed in transfected cells; host or cells: CHO (Chinese hamster ovary) cells, CHOhERG
T1 sequence (Q12809 whole entry): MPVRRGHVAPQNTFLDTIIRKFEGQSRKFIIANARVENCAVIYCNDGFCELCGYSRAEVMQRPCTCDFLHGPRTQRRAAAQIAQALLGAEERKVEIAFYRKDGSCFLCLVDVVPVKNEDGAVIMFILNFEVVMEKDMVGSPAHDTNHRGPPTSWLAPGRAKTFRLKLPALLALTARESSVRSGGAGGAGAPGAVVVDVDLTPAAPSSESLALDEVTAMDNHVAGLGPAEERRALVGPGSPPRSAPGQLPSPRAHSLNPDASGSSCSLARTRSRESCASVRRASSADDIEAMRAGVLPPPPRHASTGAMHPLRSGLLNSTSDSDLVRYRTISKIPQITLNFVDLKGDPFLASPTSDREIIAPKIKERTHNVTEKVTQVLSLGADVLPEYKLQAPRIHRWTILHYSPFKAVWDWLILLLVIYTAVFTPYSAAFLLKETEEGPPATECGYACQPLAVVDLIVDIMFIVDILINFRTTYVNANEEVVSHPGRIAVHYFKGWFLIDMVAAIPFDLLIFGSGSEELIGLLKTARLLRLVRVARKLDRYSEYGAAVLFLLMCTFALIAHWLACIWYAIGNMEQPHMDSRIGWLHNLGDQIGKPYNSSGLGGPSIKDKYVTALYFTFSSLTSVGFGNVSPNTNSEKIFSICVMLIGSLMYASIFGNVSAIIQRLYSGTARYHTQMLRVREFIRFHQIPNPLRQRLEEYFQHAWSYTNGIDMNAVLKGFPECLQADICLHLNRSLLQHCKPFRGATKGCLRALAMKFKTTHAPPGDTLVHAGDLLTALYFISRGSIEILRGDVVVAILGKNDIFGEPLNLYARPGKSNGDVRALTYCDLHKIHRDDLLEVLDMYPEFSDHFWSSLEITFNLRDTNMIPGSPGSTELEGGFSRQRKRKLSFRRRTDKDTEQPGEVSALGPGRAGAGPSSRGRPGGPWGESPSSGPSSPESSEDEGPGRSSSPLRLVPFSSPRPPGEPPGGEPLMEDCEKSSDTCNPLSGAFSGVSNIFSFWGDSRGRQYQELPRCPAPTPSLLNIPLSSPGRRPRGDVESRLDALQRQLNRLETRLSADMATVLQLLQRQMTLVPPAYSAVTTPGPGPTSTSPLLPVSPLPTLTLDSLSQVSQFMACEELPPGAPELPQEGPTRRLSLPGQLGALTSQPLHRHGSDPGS
Put plainly: hERG channel inhibition assay. In kind it is cell-based. The note with it: patch-clamp (voltage-clamp, whole-cell); for IC50: CHO cells expressing hERG; for IC20: human, CHO cells stably expressing hERG. The procedure: hERG Channel Inhibition Assay
The hERG K^+ channels were cloned in humans and stably expressed in a CHO (Chinese hamster ovary) cell line. CHOhERG cells were used for patch-clamp (voltage-clamp, whole-cell) experiments. Cells were stimulated by a voltage pattern to activate hERG channels and conduct IKhERG currents (rapid delayed outward rectifier potassium current of the hERG channel). After the cells were stabilized for a few minutes, the amplitude and kinetics of IKhERG were recorded at a stimulation frequency of 0.1 Hz (6 bpm). Thereafter, the test compound was added to the preparation at increasing concentrations. For each concentration, an attempt was made to reach a steady-state effect, usually, this was achieved within 3-10 min at which time the next highest concentration was applied. The amplitude and kinetics of IKhERG are recorded in each concentration of the drug which were compared to the control values (taken as 100%). (references: Redfem W S, Carlsson L, Davis A S, Lynch W G, MacKenzie I, Palethorpe S, Siegl P K, Strang I, Sullivan A T, Wallis R, Camm A J, Hammond T G. 2003; Relationships between preclinical cardiac electrophysiology, clinical QT interval prolongation and torsade de pointes for a broad range of drugs: evidence for a provisional safety margin in drug development. Cardiovasc. Res. 58:32-45, Sanguinetti M C, Tristani-Firouzi M. 2006; hERG potassium channels and cardiac arrhythmia. Nature 440:463-469, Webster R, Leishman D, Walker D. 2002; Towards a drug concentration effect relationship for QT prolongation and torsades de pointes. Curr. Opin. Drug Discov. Devel. 5:116-26).
(In general: hERG is a cardiac potassium channel; its block is linked to QT prolongation.)

Data set [1] concerns Balb/c 3T3 mouse fibroblasts. Put plainly: 3T3 in vitro phototoxicity assay. In kind it is cell-based. The note with it: Neutral Red uptake; for Phototoxicity factor: Factor=IC50(−UV)/IC50(+UV), cut-off factor >5; for IC50: Mus musculus, BALB/c3T3, light or radiation study, with approx. 5 J/cm2 UVA light. The text has this: 3T3 In Vitro Phototoxicity Assay
Phototoxicity is defined as a toxic response that is elicited after the first exposure of the skin to certain chemicals and subsequent exposure to light, or that is induced similarly by skin irradiation after systemic administration of a chemical substance. The assay used in this study is designed to detect the phototoxic potential of a chemical by using a simple in vitro cytotoxicity assay with Balb/c 3T3 mouse fibroblasts. The principle of this test is a comparison of the cytotoxicity of a chemical when tested with and without exposure to a non-toxic dose of UVA-light. Cytotoxicity is expressed as a dose dependent reduction of the growth rate of cells as determined by uptake of the vital dye Neutral Red one day after treatment.
A small amount of substance was weighed and formulated freshly in DMSO just before the start of the exposure of the cells. This stock solution or appropriate dilutions with DMSO were added to the cell suspensions to obtain the required final concentrations. All solutions were generally prepared in Eppendorf caps and discarded after use.
For this study the Neutral Red uptake (NRU) assay of Borenfreund and Puemer (Borenfreund, E, Puemer J A. Toxicity determined in vitro by morphological alterations and Neutral Red absorption. Toxicology Lett. 1985; 24:119-124) modified according to INVITTOX protocol No 78 (ERGATT/FRAME data bank of in vitro techniques in toxicology. INVITTOX PROTOCOL No 78. 3T3 NRU Phototoxicity Assay. March 1994) has been adapted to examine a possible phototoxic potential of the test item. This assay is based on the active uptake of the Neutral Red dye into the lysosomes of cultured murine fibroblasts. Because lysosomal membranes are known to be a site of action of many phototoxic compounds, this assay can provide a measure of potential for phototoxic injury.
A murine fibroblasts clone A 31 (ATCC no. CCL 163—passage No. 108) were cultured in 175 cm2 tissue culture grade flasks, containing sDMEM (Dulbecco's Minimal Essential Medium, supplemented with 10% fetal calf serum, 2 mM L-glutamine, 100 units/ml Penicillin and 100 μg/ml streptomycin) at 37° C. in a humidified atmosphere of 6% C02. Before cells approach confluence they were removed from flasks by trypsinisation. Prior to use in an assay, the cells were transferred to 96-well microtiter plates at a concentration of 1×10^4 cells/well in 100 μl volumes of sDMEM and allowed to attach for 24 h.
For incubation with murine fibroblasts, the test item was diluted in PBS/3% DMSO (detailed concentrations see in results).
Culture medium (Dulbecco's Modified Eagle Medium (DMEM), GlutaMAX (Gibco Ref 21885-025), 10% Fetal Bovine Serum (FBS) (Gibco Ref 10270-106), 100 IU/ml Penicillin and 100 μg/ml Streptomycin (Gibco Ref 15140-122)) was removed from the wells and murine fibroblasts were washed with PBS. Afterwards 100 μL of PBS/3% DMSO containing the test item was added and target cells were incubated for 1 h at 37° C. with 6% CO2.
For each test item the microtiter plates were prepared according to Table 4. “UVA plates” were exposed to approx. 5 J/cm2 UVA light, the “Dark plates” were kept in the dark and served as cytotoxicity control. Plates with chlorpromazine hydrochloride served as positive control. UV flux was measured with a UV-meter (Dr. Gröbel RM21).
Following UV irradiation, the test item was removed from the wells (one washing step with PBS) and replaced with sDMEM. Target cells were then incubated overnight at 37° C. in 6% CO2.
Each plate contained wells with cells and solvent but without test item which were either not incubated with Neutral Red solution (0% standard—S1) or were stained with Neutral Red (100% standard—S2) for calculation of the standard cell viability curve. Wells labeled with U01-U08 contained the different test item concentrations.
After the incubation the wells to be assayed were filled with 100 μL of the sDMEM containing Neutral Red. […]

On to `CO[C@@H]1CN(c2ccc3c(c2)CN2[C@H](C)CN(c4ccc(C#N)n5nccc45)C[C@H]32)C[C@H]1N` [Example 94, 4-[(4R,10bS)-8-[(3R,4R)-3-amino-4-methoxy-pyrrolidin-1-yl]-4-methyl-3,4,6,10b-tetrahydro-1H-pyrazino[2,1-a]isoindol-2-yl]pyrazolo[1,5-a]pyridine-7-carbonitrile], for which, on hERG K+ channel, the IC50 (usually the point on the concentration scale where inhibition reaches its midpoint) is over 20 µM and the IC20 (commonly the point of the concentration-response curve where the effect stands at 20%) was over 10 µM. In data set [1], this compound registered a Phototoxicity factor of 1.99 and an IC50 of 39 µg/mL (≈ 87.9 µM).
As for `C[C@@H]1CN(c2ccc(C#N)c3ncccc23)C[C@@H]2c3ccc(N[C@H]4CNC[C@H]4F)cc3CN12` [Example 30, 5-[(4R,10bS)-8-[[(3S,4R)-4-fluoropyrrolidin-3-yl]amino]-4-methyl-3,4,6,10b-tetrahydro-1H-pyrazino[2,1-a]isoindol-2-yl]quinoline-8-carbonitrile], in data set [1], the Phototoxicity factor is over 1.9 and 54.6 µg/mL (≈ 123 µM) corresponded to half-maximal inhibition (IC50).
On hERG K+ channel, `C[C@@H]1CN(c2ccc(C#N)c3ncccc23)C[C@@H]2c3ccc(N4CC5CNCC(C4)O5)cc3CN12` [Example 14, 5-[(4R,10bS)-4-methyl-8-(9-oxa-3,7-diazabicyclo[3.3.1]nonan-3-yl)-3,4,6,10b-tetrahydro-1H-pyrazino[2,1-a]isoindol-2-yl]quinoline-8-carbonitrile] returned an IC50 of over 20 µM and an IC20 of over 10 µM. In data set [1], this compound showed a Phototoxicity factor of 1.00 and an IC50 of over 100 µg/mL.
On to `C[C@@H]1CN(c2ccc(C#N)c3ncccc23)C[C@@H]2c3ccc(N4CC(C)(N)C4)cc3CN12` [Example 39, 5-[(4R,10bS)-8-(3-amino-3-methyl-azetidin-1-yl)-4-methyl-3,4,6,10b-tetrahydro-1H-pyrazino[2,1-a]isoindol-2-yl]quinoline-8-carbonitrile], for which, at hERG K+ channel, the IC50 was over 20 µM and the IC20 was over 10 µM. In data set [1], the Phototoxicity factor came out at 1.00 and the IC50 was over 100 µg/mL.
Taken in the same sequence, the figures for `C[C@@H]1CN(c2ccc(C#N)c3ncccc23)C[C@@H]2c3ccc(N4CCOC[C@@H](N)C4)cc3CN12` [Example 54B, 5-[(4R,10bS)-8-[(6S)-6-amino-1,4-oxazepan-4-yl]-4-methyl-3,4,6,10b-tetrahydro-1H-pyrazino[2,1-a]isoindol-2-yl]quinoline-8-carbonitrile] were over 20 µM, over 10 µM, 1.00 and over 100 µg/mL.
